The text below walks through data of ChEMBL document CHEMBL5346971, “Discovery of the First Irreversible HDAC6 Isoform Selective Inhibitor with Potent Anti-Multiple Myeloma Activity” (J Med Chem, 2023).

Molecules are shown by their SMILES. pIC50: −log10 of the molar value. Activity calls are given as the source filed them.

The target of data set [1] is T1, Protein deacetylase HDAC6 (Homo sapiens) (UniProt Q9UBN7).
T1 sequence (whole entry): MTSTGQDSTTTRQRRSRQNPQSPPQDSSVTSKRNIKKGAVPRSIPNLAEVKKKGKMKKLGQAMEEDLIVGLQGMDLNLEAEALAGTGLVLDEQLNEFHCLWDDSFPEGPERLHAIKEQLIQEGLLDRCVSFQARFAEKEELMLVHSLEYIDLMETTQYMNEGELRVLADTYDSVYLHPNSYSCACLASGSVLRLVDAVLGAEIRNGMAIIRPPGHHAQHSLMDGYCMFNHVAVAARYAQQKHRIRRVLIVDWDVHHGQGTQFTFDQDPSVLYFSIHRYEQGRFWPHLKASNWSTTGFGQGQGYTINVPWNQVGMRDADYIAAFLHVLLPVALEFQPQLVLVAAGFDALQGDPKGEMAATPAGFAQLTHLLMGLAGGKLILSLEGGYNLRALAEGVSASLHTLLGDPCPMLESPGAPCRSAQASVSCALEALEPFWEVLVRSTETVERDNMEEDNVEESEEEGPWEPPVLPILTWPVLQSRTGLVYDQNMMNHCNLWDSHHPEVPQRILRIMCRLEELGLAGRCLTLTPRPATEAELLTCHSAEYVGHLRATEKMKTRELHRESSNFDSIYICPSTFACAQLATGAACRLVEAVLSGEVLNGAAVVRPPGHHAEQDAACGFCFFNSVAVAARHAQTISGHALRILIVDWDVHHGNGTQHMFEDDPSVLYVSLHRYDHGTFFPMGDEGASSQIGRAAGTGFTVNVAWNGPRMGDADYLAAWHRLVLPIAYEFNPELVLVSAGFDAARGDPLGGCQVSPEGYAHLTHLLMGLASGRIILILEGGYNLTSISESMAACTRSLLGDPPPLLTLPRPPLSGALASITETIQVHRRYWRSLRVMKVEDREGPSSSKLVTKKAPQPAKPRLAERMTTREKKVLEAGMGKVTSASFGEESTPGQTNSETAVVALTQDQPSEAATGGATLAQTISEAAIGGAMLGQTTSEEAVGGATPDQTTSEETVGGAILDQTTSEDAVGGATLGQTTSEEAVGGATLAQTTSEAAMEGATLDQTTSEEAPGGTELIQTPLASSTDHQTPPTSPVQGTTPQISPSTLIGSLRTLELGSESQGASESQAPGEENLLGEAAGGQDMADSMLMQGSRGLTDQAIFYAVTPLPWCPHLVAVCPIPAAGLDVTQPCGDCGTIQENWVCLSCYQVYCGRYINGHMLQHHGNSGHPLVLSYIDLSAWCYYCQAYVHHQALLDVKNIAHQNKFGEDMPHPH
In words: Inhibition of HDAC6 in human A549 cells assessed as acetyl alpha-tubulin level at 2 uM incubated for 5 hrs by western blot analysis relative to control. The class given is cell-based. On the technique in general: In western blotting, separated proteins are transferred to a membrane and probed.

Data set [2] addresses T2, Class 1 histone deacetylase (Homo sapiens) (UniProt Q13547+O15379+Q92769+Q9BY41). In words: Inhibition of class 1 HDAC in human A549 cells assessed as acetyl histone H4 level at 2 uM incubated for 5 hrs by western blot analysis relative to control. Type of data set: cell-based.
The species named for a further data set is Homo sapiens. In words: Selectivity index, ratio of IC50 for inhibition of C-terminal FLAG-tagged human full length recombinant HDAC2 (1 to 488 residues) expressed in Sf9 cells to IC50 for inhibition of N-terminal GST-tagged human full length recombinant HDAC6 (1 to 1215 residues) expressed in Sf9 cells.
Data set [3] addresses T2, Class 1 histone deacetylase (Homo sapiens). In words: Irreversible inhibition of class 1 HDAC in human A549 cells assessed as acetyl histone H4 level at 0.4 uM incubated for 5 hrs followed by drug wash-out for 24 hrs by western blot analysis relative to control. Type of data set: cell-based.
For data set [4] the target is unchanged. Description: Irreversible inhibition of class 1 HDAC in human A549 cells assessed as acetyl histone H3 level at 0.4 uM incubated for 5 hrs followed by drug wash-out for 1 hr by western blot analysis relative to control. Type of data set: cell-based.
Data set [5] has as its target T1, Protein deacetylase HDAC6 (Homo sapiens). Description: Irreversible inhibition of HDAC6 in human A549 cells assessed as acetyl alpha-tubulin level at 0.4 uM incubated for 5 hrs followed by drug wash-out and measured immediately after drug wash-out by western blot analysis relative to control. The class given is cell-based.
Data set [6] has the same target. In words: Irreversible inhibition of HDAC6 in human A549 cells assessed as acetyl alpha-tubulin level at 0.4 uM incubated for 5 hrs followed by drug wash-out for 6 hrs by western blot analysis relative to control. Type of data set: cell-based.
In another data set the target is Histone deacetylase 1 (Homo sapiens, UniProt Q13547). Description: Inhibition of C-terminal His/FLAG-tagged human full length recombinant HDAC1 (1 to 482 residues) expressed in Sf9 cells using Boc-Lys(acetyI)-AMC as substrate preincubated with enzyme for 1 hr followed by substrate addition and measured after 30 mins by fluorescence based analysis.
Histone deacetylase 1, sequence (Q13547 whole entry, the tested form may be a part): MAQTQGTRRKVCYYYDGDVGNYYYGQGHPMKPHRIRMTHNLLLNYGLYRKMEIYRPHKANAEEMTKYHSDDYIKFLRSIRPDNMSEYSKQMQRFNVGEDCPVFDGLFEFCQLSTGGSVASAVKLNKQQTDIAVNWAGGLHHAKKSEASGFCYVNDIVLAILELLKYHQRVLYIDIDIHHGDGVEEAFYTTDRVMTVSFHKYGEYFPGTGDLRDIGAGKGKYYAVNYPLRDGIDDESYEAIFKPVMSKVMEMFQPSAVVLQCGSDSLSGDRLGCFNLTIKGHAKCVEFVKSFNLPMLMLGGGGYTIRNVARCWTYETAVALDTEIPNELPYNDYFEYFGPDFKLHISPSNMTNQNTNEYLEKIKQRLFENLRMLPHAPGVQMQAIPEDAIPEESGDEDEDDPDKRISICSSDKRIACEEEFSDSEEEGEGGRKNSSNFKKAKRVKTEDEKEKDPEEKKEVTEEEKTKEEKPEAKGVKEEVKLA
A further data set has as its target Histone deacetylase 9 (Homo sapiens, UniProt Q9UKV0). Description: Inhibition of C-terminal His-tagged human recombinant HDAC9 (604 to 1066 residues) expressed in baclovirus-infected Sf9 cells using Boc-Lys(trifluoroacety1)-AMC as substrate preincubated with enzyme for 1 hr followed by substrate addition and measured after 30 mins by fluorescence based analysis.

The subject of a further data set is U-266. Description: Antiproliferative activity against human U-266 cells assessed as inhibition of cell proliferation incubated for 48 hrs by CCK8 assay. Type of data set: functional, cell-based. Conditions: U-266, 48 h. In general terms: Tetrazolium dyes change colour on reduction, which living cells bring about.
Data set [7] concerns RPMI-8226. Description: Induction of apoptosis in human RPMI-8226 cells assessed as proportion of viable cells at 0.1 uM incubated for 24 hrs by AnnexinV-FITC/PI staining based flow cytometry (reference value: 84.71%). Type of data set: functional, cell-based.
Data set [8] has as its system RPMI-8226. In words: Induction of apoptosis in human RPMI-8226 cells assessed as proportion of necrotic cells at 0.1 uM incubated for 24 hrs by AnnexinV-FITC/PI staining based flow cytometry (reference value: 0.49%). The class given is functional, cell-based. (In general: In flow cytometry, cells or beads pass a laser one at a time.)
Data set [9] in a line: Half-life in human liver microsomes in presence of NADPH by LC-MS/MS analysis. The class given is ADME, Microsome.
Data set [10] is described as follows: Metabolic stability of the compound in mouse liver microsomes assessed as parent compound remaining measured after 60 mins in presence of NADPH by LC-MS/MS analysis. The class given is ADME, Microsome. Conditions: read-out: Stability.
Data set [11] concerns RPMI-8226. Description: Antitumor activity against human RPMI-8226 cells xenografted in NCG mouse assessed as T/C ratio at 10 ug administered intratumorally every 2 days by vernier caliper analysis. Type of data set: functional. The note with it: dose 10 µg; route it(Intratumoral).

T2 sequence (O15379 whole entry, looked up, the tested form may be a part): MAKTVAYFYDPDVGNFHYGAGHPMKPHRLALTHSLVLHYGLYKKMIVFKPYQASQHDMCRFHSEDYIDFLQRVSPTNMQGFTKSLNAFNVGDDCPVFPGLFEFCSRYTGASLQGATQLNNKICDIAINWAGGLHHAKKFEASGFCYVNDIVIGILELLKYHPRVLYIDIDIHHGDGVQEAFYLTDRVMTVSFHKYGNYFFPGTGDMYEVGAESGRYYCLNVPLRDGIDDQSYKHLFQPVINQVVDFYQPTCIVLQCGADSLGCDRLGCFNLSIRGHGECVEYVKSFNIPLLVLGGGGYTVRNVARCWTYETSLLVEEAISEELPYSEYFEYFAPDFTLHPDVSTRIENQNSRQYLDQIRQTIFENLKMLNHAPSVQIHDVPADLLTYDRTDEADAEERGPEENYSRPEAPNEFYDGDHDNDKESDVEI
T2 sequence (Q13547 whole entry, looked up, the tested form may be a part): as the sequence (Q13547 whole entry, the tested form may be a part) above
T2 sequence (Q92769 whole entry, looked up, the tested form may be a part): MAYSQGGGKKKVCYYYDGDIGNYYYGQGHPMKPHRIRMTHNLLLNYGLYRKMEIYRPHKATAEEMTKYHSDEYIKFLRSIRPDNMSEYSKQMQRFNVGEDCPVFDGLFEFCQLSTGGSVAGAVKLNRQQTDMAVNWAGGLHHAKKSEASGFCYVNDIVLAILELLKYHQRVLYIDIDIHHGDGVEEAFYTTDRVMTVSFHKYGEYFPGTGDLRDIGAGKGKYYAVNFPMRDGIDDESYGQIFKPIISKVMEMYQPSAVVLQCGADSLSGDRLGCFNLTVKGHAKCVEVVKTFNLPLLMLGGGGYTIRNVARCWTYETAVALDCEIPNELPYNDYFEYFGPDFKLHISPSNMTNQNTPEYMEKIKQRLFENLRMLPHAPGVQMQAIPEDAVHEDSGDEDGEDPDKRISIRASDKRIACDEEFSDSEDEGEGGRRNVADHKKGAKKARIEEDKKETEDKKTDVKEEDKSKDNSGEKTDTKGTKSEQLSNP
T2 sequence (Q9BY41 whole entry, looked up, the tested form may be a part): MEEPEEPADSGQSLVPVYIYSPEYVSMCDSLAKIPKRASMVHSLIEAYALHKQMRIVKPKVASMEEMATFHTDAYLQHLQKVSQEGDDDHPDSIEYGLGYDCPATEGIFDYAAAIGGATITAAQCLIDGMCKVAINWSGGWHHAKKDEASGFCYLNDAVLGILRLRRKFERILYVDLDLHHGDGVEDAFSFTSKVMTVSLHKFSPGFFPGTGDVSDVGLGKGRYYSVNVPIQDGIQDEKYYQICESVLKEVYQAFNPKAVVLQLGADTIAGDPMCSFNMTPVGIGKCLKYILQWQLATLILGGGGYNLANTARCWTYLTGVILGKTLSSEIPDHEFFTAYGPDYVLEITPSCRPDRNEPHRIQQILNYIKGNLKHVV
Histone deacetylase 9, sequence (Q9UKV0 whole entry, the tested form may be a part): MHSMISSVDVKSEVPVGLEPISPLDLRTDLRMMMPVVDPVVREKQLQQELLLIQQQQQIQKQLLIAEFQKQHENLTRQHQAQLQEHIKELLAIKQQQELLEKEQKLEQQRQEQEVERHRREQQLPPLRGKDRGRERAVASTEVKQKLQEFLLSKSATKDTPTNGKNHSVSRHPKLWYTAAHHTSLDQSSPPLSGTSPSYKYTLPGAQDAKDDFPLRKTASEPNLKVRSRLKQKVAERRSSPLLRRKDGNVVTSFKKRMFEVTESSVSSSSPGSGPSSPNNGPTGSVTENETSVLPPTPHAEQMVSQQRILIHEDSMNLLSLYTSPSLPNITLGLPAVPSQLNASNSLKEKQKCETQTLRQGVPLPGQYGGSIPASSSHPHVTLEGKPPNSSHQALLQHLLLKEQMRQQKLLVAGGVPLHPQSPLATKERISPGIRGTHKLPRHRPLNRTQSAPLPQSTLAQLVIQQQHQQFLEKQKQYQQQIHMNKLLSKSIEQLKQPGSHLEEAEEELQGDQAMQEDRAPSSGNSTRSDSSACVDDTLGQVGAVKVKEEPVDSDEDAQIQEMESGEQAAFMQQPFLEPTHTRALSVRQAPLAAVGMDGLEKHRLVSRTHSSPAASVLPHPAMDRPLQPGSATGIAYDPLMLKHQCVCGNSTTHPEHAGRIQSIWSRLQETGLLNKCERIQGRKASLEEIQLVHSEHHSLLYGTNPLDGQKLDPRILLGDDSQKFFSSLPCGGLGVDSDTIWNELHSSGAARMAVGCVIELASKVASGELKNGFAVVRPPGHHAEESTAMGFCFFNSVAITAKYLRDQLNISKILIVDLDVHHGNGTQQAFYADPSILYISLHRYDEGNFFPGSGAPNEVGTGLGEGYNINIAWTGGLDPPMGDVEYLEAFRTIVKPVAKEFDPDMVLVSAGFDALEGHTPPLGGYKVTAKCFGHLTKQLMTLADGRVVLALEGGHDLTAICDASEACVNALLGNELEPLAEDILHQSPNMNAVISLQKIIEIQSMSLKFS

As usually defined, the pIC50 is the negative decadic logarithm of the IC50, by convention in mol/L. By half-life is commonly meant the time needed for the level to fall by half in the phase considered. A word on the T/C: it is the result in the treated group divided by that in the control group, in per cent. Consider `O=C(NO)c1ccc(COc2no[n+]([O-])c2S(=O)(=O)c2ccccc2)cc1`, for which the fold change (FC) in [1] was determined as 4.3; in data set [2] it was 1.6; in data set [3], 0.6; in [4], 1.2; in data set [5], 5.2; in data set [6], 5.1. For the same compound, the Ratio IC50 in the data set filed under Homo sapiens was found to be 45.5. Besides, the pIC50 is 5.32 at Histone deacetylase 1, < 4.40 on Histone deacetylase 9 and 6.15 in the data set with U-266. Further, the outcome in the data set with RPMI-8226 [7] and with RPMI-8226 [8] was Active. Further, the half-life in [9] turned out to be 5.4 min. Moreover, the remaining at 1 h in data set [10] is < 0.35%. Moreover, in the data set with RPMI-8226 [11], the T/C is recorded as 55%.
